Measurements taken from article PMC11198769, “Enhancement of transcription efficiency by TAR-Tat system increases the functional expression of human olfactory receptors” (PLOS ONE, 2024).

Key:
Assay in all cases: hOR assay (GloSensor cAMP luciferase), dose-response
Assay type in all cases: cell-based
OR2B3 = molecular target: T1, OR2B3 (Homo sapiens, UniProt O76000); details: OR2B3, with or without the TAR-Tat system
T1 construct: Lucy tag (N); FLAG (N); Rho tag (N); expressed in transfected cells; host or cells: Flp-In T-REx-293 cells stably expressing RTP1S, Gαolf and Ric8-b
T1 sequence (O76000 1-313): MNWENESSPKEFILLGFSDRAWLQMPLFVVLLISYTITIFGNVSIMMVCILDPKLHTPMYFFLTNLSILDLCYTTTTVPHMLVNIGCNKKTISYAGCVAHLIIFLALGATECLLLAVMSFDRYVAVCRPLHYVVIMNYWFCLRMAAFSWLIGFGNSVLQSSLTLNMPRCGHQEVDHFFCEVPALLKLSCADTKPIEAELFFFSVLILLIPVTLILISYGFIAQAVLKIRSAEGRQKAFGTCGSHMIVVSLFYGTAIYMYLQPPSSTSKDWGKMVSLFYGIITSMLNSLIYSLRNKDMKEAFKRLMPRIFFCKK

OR2J3 = molecular target: T2, OR2J3 (Homo sapiens, UniProt O76001); details: OR2J3, with and without the TAR-Tat system
T2 construct: Lucy tag (N); FLAG (N); Rho tag (N); expressed in transfected cells; host or cells: Flp-In T-REx-293 cells stably expressing RTP1S, Gαolf and Ric8-b
T2 sequence (O76001 1-311): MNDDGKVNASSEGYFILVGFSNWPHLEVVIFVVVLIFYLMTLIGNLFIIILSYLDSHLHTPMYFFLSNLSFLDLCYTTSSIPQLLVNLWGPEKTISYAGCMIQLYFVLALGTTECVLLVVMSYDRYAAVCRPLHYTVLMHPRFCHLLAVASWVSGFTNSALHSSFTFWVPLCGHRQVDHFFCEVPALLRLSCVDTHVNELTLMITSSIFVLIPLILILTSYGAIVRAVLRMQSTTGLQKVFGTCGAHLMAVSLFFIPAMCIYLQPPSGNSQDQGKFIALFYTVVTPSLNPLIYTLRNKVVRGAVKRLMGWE

OR2M3 = molecular target: T3, OR2M3 (Homo sapiens, UniProt Q8NG83)
T3 construct: Lucy tag (N); expressed in transfected cells; host or cells: Flp-In T-REx-293 cells stably expressing RTP1S, Gαolf and Ric8-b
T3 sequence (Q8NG83 1-312): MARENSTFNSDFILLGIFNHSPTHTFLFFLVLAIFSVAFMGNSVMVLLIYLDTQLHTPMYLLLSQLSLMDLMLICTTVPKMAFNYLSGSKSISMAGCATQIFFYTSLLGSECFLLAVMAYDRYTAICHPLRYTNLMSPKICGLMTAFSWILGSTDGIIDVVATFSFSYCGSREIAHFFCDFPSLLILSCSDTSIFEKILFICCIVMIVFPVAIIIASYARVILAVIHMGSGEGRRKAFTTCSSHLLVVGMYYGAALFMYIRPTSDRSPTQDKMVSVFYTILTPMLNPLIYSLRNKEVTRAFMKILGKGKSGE

OR2Z1 = molecular target: T4, OR2Z1 (Homo sapiens, UniProt Q8NG97); details: OR2Z1, with or without the TAR-Tat system
T4 construct: Lucy tag (N); FLAG (N); Rho tag (N); expressed in transfected cells; host or cells: Flp-In T-REx-293 cells stably expressing RTP1S, Gαolf and Ric8-b
T4 sequence (Q8NG97 1-314): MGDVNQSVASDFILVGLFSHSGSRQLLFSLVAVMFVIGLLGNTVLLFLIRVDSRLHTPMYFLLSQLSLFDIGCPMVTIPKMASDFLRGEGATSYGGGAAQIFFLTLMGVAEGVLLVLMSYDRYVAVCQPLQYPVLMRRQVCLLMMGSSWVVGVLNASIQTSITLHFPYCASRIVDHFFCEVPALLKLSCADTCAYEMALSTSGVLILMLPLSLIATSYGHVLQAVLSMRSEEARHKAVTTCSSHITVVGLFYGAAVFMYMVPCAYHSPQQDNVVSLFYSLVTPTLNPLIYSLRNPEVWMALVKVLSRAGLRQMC

OR52N4 = molecular target: T5, OR52N4 (Homo sapiens, UniProt Q8NGI2); details: OR52N4, with or without the TAR-Tat system
T5 construct: Lucy tag (N); expressed in transfected cells; host or cells: Flp-In T-REx-293 cells stably expressing RTP1S, Gαolf and Ric8-b
T5 sequence (Q8NGI2 1-321): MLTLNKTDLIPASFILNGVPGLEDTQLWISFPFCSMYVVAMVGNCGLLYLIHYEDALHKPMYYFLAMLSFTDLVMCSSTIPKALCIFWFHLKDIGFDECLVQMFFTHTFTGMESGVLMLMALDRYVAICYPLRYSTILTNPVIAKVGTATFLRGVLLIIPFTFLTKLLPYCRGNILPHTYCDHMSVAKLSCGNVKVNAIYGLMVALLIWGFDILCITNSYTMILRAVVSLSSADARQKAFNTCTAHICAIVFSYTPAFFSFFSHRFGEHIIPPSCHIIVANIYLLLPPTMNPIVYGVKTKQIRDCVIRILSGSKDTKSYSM

For `CCCCCC=O` [n-hexanal], the “concentration-dependent response to n-hexanal” value (OR2B3) was “no concentration-dependent response”, the “concentration-dependent response to n-hexanal” value (OR2J3) was “concentration-dependent responses only with the TAR-Tat system” and the “mode of action on OR2M3” value (OR2M3; OR2M3/pHEK plasmid) was “inverse agonist”. For the same compound, the “suppression of the active response of OR2M3 to agonist” value (OR2M3; coadministered with 500 μM 3-mercapto-2-methyl-1-pentanol, OR2M3/pHEK plasmid) was “suppressed in an n-hexanal concentration-dependent manner”, the “inhibitory effect on the constitutive activity of OR2M3 (luminescence values)” value (OR2M3; with and without the TAR-Tat system) was “decreased in an n-hexanal concentration-dependent manner only in the case with the TAR-Tat system” and the “concentration-dependent response to n-hexanal” value (OR2Z1) was “no concentration-dependent response”. The “concentration-dependent response to n-hexanal” value (OR52N4) was “no concentration-dependent response”.
